Measurements from paper PMC13266999, “Designing Antibiotics with Inherent Resistance to Efflux as a Strategy to Revive Discovery against Multidrug-Resistant Pathogens” (Journal of Medicinal Chemistry, 2026).
Converted amounts (≈) assume the structure as drawn. Like-named read-outs stand apart in the source and are kept apart here.

Columns and labels:
[1] = tested on: A. baumannii; test: A. baumannii efflux chequerboard assay; assay type: cell-based, Acinetobacter baumannii; conditions: for MIC: Acinetobacter baumannii
Protocol: Checkerboard assays were performed by preparing two separate 2-fold dilution series of compounds in two 96 well plates, one horizontally, one vertically. […] Plates were incubated at 37 C for 20 h and the absorbance (OD600) was read on a CLARIOstar spectrophotometer (BMG Labtech). The fractional inhibitory concentration was calculated as follows: ΣFIC = [(MIC of A in combination)/(MIC of A alone)] + [(MIC of B in combination)/(MIC of B alone)].

[2] = tested on: S. aureus; test: MIC (microbroth dilution); assay type: cell-based, Staphylococcus aureus; conditions: for MIC: Staphylococcus aureus
Protocol: All bacteria were maintained on tryptic soy agar (TSA), except Streptococcus spp., which were maintained on Columbia agar plates containing 5% horse blood. […] Bacteria were grown to stationary phase in liquid culture overnight, with shaking at 200 rpm, before being back diluted to the relevant starting concentration for each assay below. MICs were measured by the microbroth dilution method. […] Absorbance at OD600 was read on a CLARIOstar spectrophotometer (BMG Labtech) and the MIC was defined as the minimum concentration of compound where no visible growth was detected. […] MICs were also performed in the presence of the outer membrane permeator, polymyxin b nonapeptide (PMBN) following the same MIC method but with the following variation. The 2-fold dilution series of compound was prepared as above, then 50 μL of PMBN at a final concentration of 30 μg/mL was added to relevant wells, while 50 μL/well of blank media was added to the remaining wells. Bacteria were then added at 50 μL/well for a starting concentration as above. […] The MICs were read and defined as above. All animal procedures were performed by the contract research organization Pharmacology Discovery Services Taiwan in accordance with the Guide for the Care and Use of Laboratory Animals. The procedures were approved by the Institutional Ethics Committee of Pharmacology Discovery Services Taiwan, Ltd. (approval no. AB127662), in compliance with animal welfare legislation in Taiwan.

[3] = ATCC17978, A. baumannii ATCC 17978, read-out: MIC alone
[4] = A. baumannii AYE, read-out: MIC alone
[5] = ATCC9144, ATCC 9144, read-out: MIC
[6] = NCTC13277, NCTC 13277, read-out: MIC
[7] = NCTC13616, NCTC 13616, read-out: MIC

Compound | MIC +50 (0.25x MIC) ([1]; A. baumannii ATCC 17978) | MIC +50 (0.5x MIC) ([1]; A. baumannii ATCC 17978) | MIC +50 (0.25x MIC) ([1]; A. baumannii AYE) | MIC [2, 5] | MIC [2, 6] | MIC [2, 7] | MIC ([2]; SA-1199, read-out: MIC) | MIC ([2]; SA-1199B (NorA-overexpressing)) | further results
CC(C)(O/N=C(\C(=O)N[C@@H]1C(=O)N2C(C(=O)[O-])=C(C[n+]3ccccc3)CS[C@H]12)c1csc(N)n1)C(=O)O [Ceftazidime] | 0.94 to 3.76 µg/mL | 0.003 to 0.438 µg/mL | >1,024 μg/mL |  |  |  |  |  | MIC +50 (0.5x MIC) ([1]; A. baumannii AYE): 3.76 to 224 µg/mL; MIC [1, 3]: 4 to 16 µg/mL; MIC [1, 4]: > 1020 µg/mL
O=C(N[C@H](CO)[C@H](O)c1ccc([N+](=O)[O-])cc1)C(Cl)Cl [Chloramphenicol] | 60 µg/mL | 56 µg/mL | 120 µg/mL |  |  |  |  |  | MIC +50 (0.5x MIC) ([1]; A. baumannii AYE): 224 µg/mL; MIC ([1]; ATCC17978, read-out: MIC alone): 64 µg/mL; MIC ([1]; read-out: MIC alone): 128 µg/mL
CCn1cc(C(=O)O)c(=O)c2cc(F)c(N3CCN(Cc4ccc(-c5ccccc5)cc4)CC3)cc21 [Compound 40, 7-(4-([1,1’-Biphenyl]-4-ylmethyl)piperazin-1-yl)-1-ethyl-6-fluoro-4-oxo-1,4-dihydroquinoline-3-carboxylic acid] |  |  |  | 2 µg/mL (≈ 4.12 µM) | 4 µg/mL (≈ 8.24 µM) | 2 µg/mL (≈ 4.12 µM) |  |  | 
C[C@H]1COc2c(N3CC[C@H](Nc4ncccn4)C3)c(F)cc3c(=O)c(C(=O)O)cn1c23 [Compound 44, (S)-9-Fluoro-3-methyl-7-oxo-10-((S)-3-(pyrimidin-2-ylamino)pyrrolidin-1-yl)-2,3-dihydro-7H-[1,4]oxazino[2,3,4-ij]quinoline-6-carboxylic acid] |  |  |  | 0.25 µg/mL (≈ 0.588 µM) | 8 µg/mL (≈ 18.8 µM) | 8 µg/mL (≈ 18.8 µM) | 0.25 µg/mL (≈ 0.588 µM) | 0.25 µg/mL (≈ 0.588 µM) | fold potentiation compared to levofloxacin ([2]; fluoroquinolone-resistant NCTC 13616 and NCTC 13277): 2–4 fold
C[C@H]1COc2c(N3CC[C@@H](N)C3)c(F)cc3c(=O)c(C(=O)O)cn1c23 [Compound 45, (S)-10-((R)-3-Aminopyrrolidin-1-yl)-9-fluoro-3-methyl-7-oxo-2,3-dihydro-7H-[1,4]oxazino[2,3,4-ij]quinoline-6-carboxylic acid] |  |  |  | 0.25 µg/mL (≈ 0.72 µM) | 32 µg/mL (≈ 92.1 µM) | 32 µg/mL (≈ 92.1 µM) |  |  | fold loss of activity compared to 46 [2]: 32- to 64 fold
C[C@H]1COc2c(N3CC[C@@H](Nc4ncc(F)cn4)C3)c(F)cc3c(=O)c(C(=O)O)cn1c23 [Compound 47, (S)-9-Fluoro-10-((R)-3-((5-fluoropyrimidin-2-yl)amino)pyrrolidin-1-yl)-3-methyl-7-oxo-2,3-dihydro-7H-[1,4]oxazino[2,3,4-ij]quinoline-6-carboxylic acid] |  |  |  | ≤ 0.125 µg/mL | 1 µg/mL (≈ 2.26 µM) | 0.5 µg/mL (≈ 1.13 µM) |  |  | 
C[C@H]1COc2c(N3CC[C@@H](Nc4cnccn4)C3)c(F)cc3c(=O)c(C(=O)O)cn1c23 [Compound 48, (S)-9-Fluoro-3-methyl-7-oxo-10-((R)-3-(pyrazin-2-ylamino)pyrrolidin-1-yl)-2,3-dihydro-7H-[1,4]oxazino[2,3,4-ij]quinoline-6-carboxylic acid] |  |  |  | ≤ 0.125 µg/mL | 1 µg/mL (≈ 2.35 µM) | 1 µg/mL (≈ 2.35 µM) | 0.03 µg/mL (≈ 0.0705 µM) | 0.125 µg/mL (≈ 0.294 µM) | 
Cc1cc(N[C@@H]2CCN(c3c(F)cc4c(=O)c(C(=O)O)cn5c4c3OC[C@@H]5C)C2)ncn1 [Compound 49, (S)-9-Fluoro-3-methyl-10-((R)-3-((6-methylpyrimidin-4-yl)amino)pyrrolidin-1-yl)-7-oxo-2,3-dihydro-7H-[1,4]oxazino[2,3,4-ij]quinoline-6-carboxylic acid] |  |  |  | 0.016 µg/mL (≈ 0.0364 µM) | 0.5 µg/mL (≈ 1.14 µM) | 0.25 µg/mL (≈ 0.569 µM) | 0.016 µg/mL (≈ 0.0364 µM) | 0.016 µg/mL (≈ 0.0364 µM) | 
CNC(C)C1CCC(N)C(OC2C(N)CC(N)C(OC3OCC(C)(O)C(NC)C3O)C2O)O1 (centres unmarked) [Gentamicin] | 2.13 to 4.25 µg/mL | 0.03 to 1.75 µg/mL | >1,024 μg/mL |  |  |  |  |  | MIC [1, 3]: 4 µg/mL; MIC [1, 4]: > 1020 µg/mL
c1ccc2c(CN3CCNCC3)cccc2c1 [NMP, 1-(naphthalen-1-ylmethyl)piperazine, reference compound] |  |  |  |  |  |  |  |  | fold improvement over ciprofloxacin alone ([2]; fluoroquinolone-resistant S. aureus strains): 2 fold
